For experiment [1], the system named is Mouse Splenocytes. Description: Mouse spleen cell-based assay (R848, IL-6 ELISA). The conditions noted are these: Mus musculus, Splenocyte, BALB/c spleen cells, 370 nM R848. On the procedure: Mouse Spleen cell-based assay. Spleens were harvested from female BALB/c mice (Jackson Labs, Bar Harbor, Me.) euthanized by CO2. A single cell suspension was obtained by passing spleens through a 40 μm an nylon cell strainer. Cells were washed twice with 50 ml PBS (Mediatech, Inc., Manassas, Va.) and red blood cells were lysed in 5 ml RBC Lysis buffer (eBioscience, Inc., San Diego, Calif.) for 5 minutes at room temperature. Cells were washed twice more in PBS and finally resuspended in supplemented RPMI-1640 at 2.5×10^6 cells/ml. Cells were plated at 100 μl/well (2.5×10^5 cells/well) in 96-well tissue culture treated plates (Falcon). Serial dilutions of compounds solubilized in 100% DMSO were added in triplicate to cells to yield a final concentration of 0.1% DMSO. Cells were incubated with compound for 30 minutes at 37° C., 5% CO2 before adding 100 μl/well of 740 nM R848 (Resiquimod; GLSynthesis, Worcester, Mass.) in complete media for a final concentration of 370 nM R848. Cells were incubated for 20 hours at 37° C., 5% CO2. Culture supernatants were collected, and levels of IL-6 were assessed by standard ELISA procedure according to the manufacturer's recommended protocol (BD Biosciences, Inc., San Diego, Calif.).
Background: In an ELISA, binding on a coated surface is turned into a signal by an enzyme label.

For experiment [2], the system named is Human TLR7/8. Kind of experiment: Human PBMC cell-based assay, TLR7/8 stimulus (RNA-Ig), cytokine ELISA. The method in brief:
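The agonist was RNA-Ig, a U1 snRNA-derived 26-mer RNA (2.5 μM) complexed with RNA-cross-reacting anti-ssDNA mAb (1:25 or 1 ug/ml), added after 30 min compound pre-incubation (0.1% DMSO). Density-gradient PBMC from healthy donors, 2×10^5/well, were stimulated 20 h at 37 °C; cytokines quantified by ELISA.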

The mark [3] stands for this setting: primary human PBMC assay, TLR7/8 potency, ligand not given, read-out: Human PBMCs IC50.

The IC50 is the point on the concentration scale where inhibition reaches its midpoint.

Read-outs that look alike come from different tables or passages of the source.

Consider `C[C@@H]1CN(c2ccc(C#N)c3ncccc23)C[C@H](C)O1` [ER-878952], for which the results for the IC50 in experiment [1] and in experiment [2] (setting [3]) were 1610 nM and 151 nM, respectively.

As for `C[C@@H]1CN(c2ccc(C#N)c3ncccc23)C[C@H](CO)O1` [ER-885493, 5-((2R,6R)-2-(hydroxymethyl)-6-methylmorpholino)quinoline-8-carbonitrile], the figures for the IC50 in experiment [1] and in experiment [2] (setting [3]) were 517 nM and 180 nM, respectively.

In the case of `C[C@@H]1CN(c2ccc(C#N)c3ncccc23)C[C@H](CN2CC[C@H](O)C2)O1` [ER-886820], the IC50 in experiment [2] (setting [3]) is 62 nM.

For `C[C@@H]1CN(c2ccc(C#N)c3ncccc23)C[C@H](CN2CCC(O)CC2)O1` [ER-886953], the half-inhibitory concentration (IC50) in experiment [2] (setting [3]) is 26 nM.

Turning to `C[C@@H]1CN(c2ccc(C#N)c3ncccc23)C[C@H](CNC2CCCC2)O1` [ER-887145], in experiment [2] (setting [3]), the IC50 is 15 nM.

For `C[C@@H]1CN(c2ccc(C#N)c3ncccc23)C[C@H](CN2CCNCC2)O1` [ER-887253], the IC50 was 49 nM in experiment [1] and 1 nM in experiment [2] (setting [3]).

As to `C[C@@H]1CN(C[C@H]2CN(c3ccc(C#N)c4ncccc34)C[C@@H](C)O2)CCN1` [ER-887269], the half-maximal inhibitory concentration (IC50) in experiment [2] (setting [3]) turned out to be 1 nM.

Regarding `CC1CNC(=O)CN1C[C@H]1CN(c2ccc(C#N)c3ncccc23)C[C@@H](C)O1` (stereo partly shown) [ER-887722], the IC50 was determined as 463 nM in experiment [1] and 65 nM in experiment [2] (setting [3]).

For `C[C@@H]1CN(c2ccc(C#N)c3ncccc23)C[C@H](CN2CCN(C)CC2)O1` [ER-887723], the IC50 in experiment [1] stood at 47 nM; in experiment [2] (setting [3]) it was 7 nM.

As to `CCCN1CCN(C[C@H]2CN(c3ccc(C#N)c4ncccc34)C[C@@H](C)O2)CC1` [ER-887724], the IC50 was 70 nM in experiment [1] and 6 nM in experiment [2] (setting [3]).

As for `CC1CN(c2ccc(C#N)c3ncccc23)CC(CN2CCC(N(C)C)CC2)O1` (stereo not shown) [ER-887725], the IC50 in experiment [2] (setting [3]) turned out to be 2 nM.

`C[C@@H]1CN(c2ccc(C#N)c3ncccc23)C[C@H](CN2CCC(N3CCCCC3)CC2)O1` [ER-887927, 5-((2S,6R)-2-([1,4′-bipiperidin]-1′-ylmethyl)-6-methylmorpholino)quinoline-8-carbonitrile] displayed an IC50 in experiment [1] of 26 nM.

On to `CC(=O)NC1CCN(CC2CN(c3ccc(C#N)c4ncccc34)CC(C)O2)CC1` (stereo not shown) [ER-888288], for which the IC50 in experiment [1] turned out to be 135 nM; in experiment [2] (setting [3]), 15 nM.

With `CC1CN(c2ccc(C#N)c3ncccc23)CC(CN2CCN(C)CC2C)O1` (stereo not shown) [ER-889556], the IC50 in experiment [1] was determined as 432 nM; in experiment [2] (setting [3]), 10 nM.

Consider `CC1CN(c2ccc(C#N)c3ncccc23)CC(CN2CCC(NC(=O)C(C)C)CC2)O1` (stereo not shown) [ER-889745], for which the 50% inhibitory concentration (IC50) in experiment [1] was 90 nM; in experiment [2] (setting [3]), 46 nM.

As to `CC[C@H]1CN(C[C@H]2CN(c3ccc(C#N)c4ncccc34)C[C@@H](C)O2)CCN1` [ER-890963], the IC50 in experiment [1] was 250 nM; in experiment [2] (setting [3]), 2 nM.

Consider `C[C@@H]1CN(c2ccc(C#N)c3ncccc23)C[C@H](C(=O)NC2CCN(C)CC2)O1` [ER-899464, (2R,6R)-4-(8-cyanoquinolin-5-yl)-6-methyl-N-(1-methylpiperidin-4-yl)morpholine-2-carboxamide], for which the IC50 in experiment [2] (setting [3]) amounted to 1 nM.

For the molecule `C[C@@H]1CN(c2ccc(C#N)c3ncccc23)C[C@H](C(=O)N[C@H]2CNC[C@H]2F)O1.Cl` [ER-899742, (2R,6R)-4-(8-cyanoquinolin-5-yl)-N-[(3S,4R)-4-fluoropyrrolidin-3-yl]-6-methylmorpholine-2-carboxamide hydrochloride], the half-inhibitory concentration (IC50) worked out at 0.9 nM in experiment [2] (Hu PBMC, ligand RNA-Ig, analyte IL-6) and 1 nM in experiment [2] (read-out: Human PBMCs IC50, primary human PBMC assay, TLR7/8 potency, ligand not given). Moreover, the “fold more potent versus HCQ” value in experiment [2] (RNA-Ig TLR7/8 stimulus) was “approximately 1000 fold”.

In the case of `CCN(CCO)CCCC(C)Nc1ccnc2cc(Cl)ccc12` (stereo not shown) [HCQ, hydroxychloroquine, reference compound], in experiment [2] (Hu PBMC, ligand RNA-Ig, analyte IL-6, read-out: IC50), the IC50 was in the range of 1000 to 2000 nM.

Values taken from patent USRE47193E1, “Selectively substituted quinoline compounds” (EISAI R&D MANAGEMENT CO., LTD., priority 2013, dated 2019).
